# Test results reported in patent publication US20240083908A1, “TETRAHYDROTHIENOPYRIMIDINESULFONAMIDE COMPOUNDS” (priority 2020, published 2024).
# pIC50: −log10 of the molar value.
# Molecular target: human recombinant PARG (Homo sapiens (Human), UniProt Q86W56)
# Test: PARG Activity Assay
# Assay type: biochemical
# Conditions: recombinant human PARG 0.0185 nM, 1 hour pre-incubation, poly (ADP-ribose) substrate-coated plate, Abs 450
# Description: In order to evaluate the PARG inhibitory activity of the present compound, the inhibitory activity of each test compound against human recombinant PARG was measured. The specific procedure is described below.
# Test compound was dissolved in dimethyl sulfoxide and prepared a 10 mM stock solution.
# PARG Activity Assay was performed in Streptavidin-coated 96-well plates. […] The substrate solution was added to the 96-well plate at the volume of 200 micro liter per well and incubated for 3 hours at room temperature. After the incubation, the substrate solution was discarded and assay plate was washed 4 times with 220 micro liter of PBS containing 0.1% Tween20 (PBST). […] The diluted enzyme solution was pre-incubated with compounds for 1 hour at room temperature in a 96-well plate and transferred 100 micro liter per well to the poly (ADP-ribose) substrate-coated assay plate. The plate was incubated for 1 hour at 25° C. and then washed 4 times with 220 micro liters of PBST. For the detection of non-digested poly (ADP-ribose) polymer on the plate, mouse anti-poly (ADP-ribose) antibody diluted with 0.2% BSA containing PBS was added 100 micro liters per well and incubated 1 hour at room temperature. Plate was washed 4 times with TBST and 100 micro liter of HRP-labeled anti-mouse Ig antibody was added to the wells. Plate was incubated for 30 minutes at room temperature and then washed 4 times with PBST. For the detection 100 micro liters of TMB substrate solution was added to the wells. After sufficient color development, reaction was stopped by addition of 50 micro liter of 0.2 M […]. The 450 nm absorbance (Abs 450) of each well was read with a micro plate reader. The assay was performed by duplicated and average of 2 independent assays were used for the determination of PARG inhibitor y activity.
# Wells treated with dimethyl sulfoxide instead of test compound solution were designated as a Negative Control of assay
# Wells treated with 0.2% BSA containing PBS instead of recombinant human PARG protein and with dimethyl sulfoxide instead of test compound solution were designated as a Positive Control of assay.
# The PARG Inhibitory Activity (%) was determined by the following formulation.
# PARG Inhibitory Activity (%)=[(AbsX−AbsA)/(AbsB−AbsA)]×100
# (wherein, • AbsA is absorbance (Abs 450) of Negative Control wells • AbsB is absorbance (Abs 450) of Positive Control wells • AbsX is absorbance (Abs 450) of wells treated with test compound.)
# In Table, Ex indicates an Example number shown below.
# Chain of human recombinant PARG (Q86W56 whole entry): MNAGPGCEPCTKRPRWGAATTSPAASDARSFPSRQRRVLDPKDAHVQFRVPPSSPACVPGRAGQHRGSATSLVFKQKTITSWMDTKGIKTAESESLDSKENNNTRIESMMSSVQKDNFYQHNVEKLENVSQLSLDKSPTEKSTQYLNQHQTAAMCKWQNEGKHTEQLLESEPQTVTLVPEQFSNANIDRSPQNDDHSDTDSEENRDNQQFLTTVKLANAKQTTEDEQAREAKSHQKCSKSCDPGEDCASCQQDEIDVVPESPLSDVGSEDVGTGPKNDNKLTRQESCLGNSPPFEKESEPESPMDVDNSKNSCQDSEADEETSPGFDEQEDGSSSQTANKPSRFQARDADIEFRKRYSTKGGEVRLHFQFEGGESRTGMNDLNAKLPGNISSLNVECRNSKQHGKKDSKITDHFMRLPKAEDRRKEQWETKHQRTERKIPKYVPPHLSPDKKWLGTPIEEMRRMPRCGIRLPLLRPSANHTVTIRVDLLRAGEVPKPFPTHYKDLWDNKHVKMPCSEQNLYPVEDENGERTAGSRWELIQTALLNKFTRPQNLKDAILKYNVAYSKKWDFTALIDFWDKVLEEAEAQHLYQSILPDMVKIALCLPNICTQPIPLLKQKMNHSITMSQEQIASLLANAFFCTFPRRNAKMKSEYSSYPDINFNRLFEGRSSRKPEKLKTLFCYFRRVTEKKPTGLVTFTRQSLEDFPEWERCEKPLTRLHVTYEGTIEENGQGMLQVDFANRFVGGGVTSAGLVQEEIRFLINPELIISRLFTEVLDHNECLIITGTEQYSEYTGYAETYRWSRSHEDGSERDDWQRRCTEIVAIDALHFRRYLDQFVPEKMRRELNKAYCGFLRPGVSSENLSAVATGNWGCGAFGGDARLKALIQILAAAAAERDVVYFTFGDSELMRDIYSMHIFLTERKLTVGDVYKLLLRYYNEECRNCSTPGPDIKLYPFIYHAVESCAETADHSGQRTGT
row,Compound,pIC50
1,Cn1cc(Cn2c(=O)c3cc(S(=O)(=O)NC4(C)CC4)sc3n(Cc3cncc(CO)c3)c2=O)cn1 [Ex 117],7.39
2,Cc1cc(Cn2c(=O)n(Cc3cnn(C)c3)c(=O)c3cc(S(=O)(=O)NC4(C)CC4)sc32)[nH]n1 [Ex 31],7.54
3,Cc1ncc(Cn2c(=O)c3cc(S(=O)(=O)NC4CC4)sc3n(CC3CC3)c2=O)s1 [Ex 24],5.65
4,Cn1cc(Cn2c(=O)c3cc(S(=O)(=O)NC4(C)CC4)sc3n(Cc3ccc(F)c(C(=O)N4CCN(C(=O)C5CC5)CC4)c3)c2=O)cn1 [Ex 127],6.49
5,Cc1cc(Cn2c(=O)n(Cc3cnn(C)c3)c(=O)c3cc(S(=O)(=O)NC4(C)CC4)sc32)cc2c1COC2 [Ex 114],7.47
6,Cc1cc(Cn2c(=O)n(Cc3cnn(C)c3)c(=O)c3cc(S(=O)(=O)NC4(C)CC4)sc32)n(C)n1 [Ex 30],7.43
7,Cn1cc(Cn2c(=O)c3cc(S(=O)(=O)NC4(C)CC4)sc3n(CCc3ccccc3)c2=O)cn1 [Ex 132],6.18
8,Cn1cc(Cn2c(=O)c3cc(S(=O)(=O)NC4(C)CC4)sc3n(CC3CC3)c2=O)cn1 [Ex 26],6.43
9,Cn1cc(Cn2c(=O)c3cc(S(=O)(=O)NC4(C)CC4)sc3n(Cc3ccc4c(n3)COC4)c2=O)cn1 [Ex 109],7.35
10,COCCN(C)c1ccc(Cn2c(=O)n(Cc3cnn(C)c3)c(=O)c3cc(S(=O)(=O)NC4(C)CC4)sc32)cc1F [Ex 75],6.89
11,COc1cncc(Cn2c(=O)n(Cc3cnn(C)c3)c(=O)c3cc(S(=O)(=O)NC4(C)CC4)sc32)c1 [Ex 42],7.40
12,Cc1ncc(Cn2c(=O)c3cc(S(=O)(=O)NC4(C)CC4)sc3n(CC3CCOC3)c2=O)s1 (stereo not shown) [Ex 16],6.01
13,CNc1c(F)cc(Cn2c(=O)n(Cc3cnn(C)c3)c(=O)c3cc(S(=O)(=O)NC4(C)CC4)sc32)cc1F [Ex 125],7.70
14,Cn1cc(Cn2c(=O)c3cc(S(=O)(=O)NC4(C)CC4)sc3n(Cc3ccc(N4CC[C@H](O)C4)nc3)c2=O)cn1 [Ex 83],6.96
15,Cn1cc(Cn2c(=O)c3cc(S(=O)(=O)NC4(C)CC4)sc3n(Cc3ccc(C4CC4)cc3)c2=O)cn1 [Ex 49],7.02
16,COCCC(=O)N1CCC(n2c(=O)n(Cc3cnn(C)c3)c(=O)c3cc(S(=O)(=O)NC4(C)CC4)sc32)CC1 [Ex 94],6.57
17,Cn1cc(Cn2c(=O)c3cc(S(=O)(=O)NC4(C#N)CC4)sc3n(Cc3ccc(F)cc3)c2=O)cn1 [Ex 103],6.96
18,Cn1cc(Cn2c(=O)c3cc(S(=O)(=O)NC4(C)CC4)sc3n(Cc3ccn(C)c(=O)c3)c2=O)cn1 [Ex 85],6.96
19,Cn1cc(Cn2c(=O)c3cc(S(=O)(=O)NC4(C)CC4)sc3n(Cc3ccc(F)c(Cl)c3)c2=O)cn1 [Ex 48],6.92
20,Cc1ncc(Cn2c(=O)c3cc(S(=O)(=O)NC4(C)CC4)sc3n(CC3CCOCC3)c2=O)s1 [Ex 14],6.49

row,Compound,pIC50
1,COC(=O)c1cc(Cn2c(=O)n(Cc3cnn(C)c3)c(=O)c3cc(S(=O)(=O)NC4(C)CC4)sc32)ccc1F [Ex 126],7.35
2,Cn1cc(Cn2c(=O)c3cc(S(=O)(=O)NC4(C)CC4)sc3n(CCC3(C)COC3)c2=O)cn1 [Ex 120],6.92
3,Cc1c(Cn2c(=O)n(Cc3cnn(C)c3)c(=O)c3cc(S(=O)(=O)NC4(C)CC4)sc32)ccc2c1COC2 [Ex 115],7.17
4,CN1CCc2ccc(Cn3c(=O)n(Cc4cnn(C)c4)c(=O)c4cc(S(=O)(=O)NC5(C)CC5)sc43)cc2C1=O [Ex 118],6.92
5,Cn1cc(Cn2c(=O)c3cc(S(=O)(=O)NC4(C)CC4)sc3n(Cc3ccc(Oc4ccc(F)cc4)nc3)c2=O)cn1 [Ex 128],6.89
6,COc1c(C)cnc(Cn2c(=O)n(Cc3cnn(C)c3)c(=O)c3cc(S(=O)(=O)NC4(C)CC4)sc32)c1C [Ex 133],5.93
7,Cn1cc(Cn2c(=O)c3cc(S(=O)(=O)NC4(C)CC4)sc3n(Cc3ccc4c(c3)C(=O)NC4)c2=O)cn1 [Ex 61],7.96
8,CO[C@H]1CCN(c2ccc(Cn3c(=O)n(Cc4cnn(C)c4)c(=O)c4cc(S(=O)(=O)NC5(C)CC5)sc43)cn2)C1 [Ex 84],6.70
9,Cc1ncc(Cn2c(=O)c3cc(S(=O)(=O)NC4(C)CC4)sc3n(Cc3cnc4[nH]ccc4c3)c2=O)s1 [Ex 10],7.80
10,CC(=O)N1CCC(Cn2c(=O)n(Cc3cnn(C)c3)c(=O)c3cc(S(=O)(=O)NC4(C)CC4)sc32)CC1 [Ex 86],6.80
11,Cn1cc(Cn2c(=O)c3cc(S(=O)(=O)NC4(C)CC4)sc3n(Cc3ccc4[nH]ncc4c3)c2=O)cn1 [Ex 38],8.39
12,Cn1cc(Cn2c(=O)c3cc(S(=O)(=O)NC4(C)CC4)sc3n(Cc3ccc4[nH]c(CO)cc4c3)c2=O)cn1 [Ex 116],7.82
13,Cc1nn(C)cc1Cn1c(=O)n(Cc2cnn(C)c2)c(=O)c2cc(S(=O)(=O)NC3(C)CC3)sc21 [Ex 32],5.16
14,Cn1cc(Cn2c(=O)c3cc(S(=O)(=O)NC4(C)CC4)sc3n(Cc3ccc(N4CCCC4)nc3)c2=O)cn1 [Ex 82],7.01
15,COCCNc1ncc(Cn2c(=O)n(Cc3cnn(C)c3)c(=O)c3cc(S(=O)(=O)NC4(C)CC4)sc32)cn1 [Ex 79],7.15
16,Cc1nc(C)c(Cn2c(=O)n(Cc3cnn(C)c3)c(=O)c3cc(S(=O)(=O)NC4(C#N)CC4)sc32)s1 [Ex 101],7.19
17,Cc1ncc(Cn2c(=O)c3cc(S(=O)(=O)NC4(C)CC4)sc3n(Cc3ccc4c(c3)OCC4)c2=O)s1 [Ex 13],7.39
18,Cc1ncc(Cn2c(=O)c3cc(S(=O)(=O)NC4(C)CC4)sc3n(Cc3ccc4cn[nH]c4c3)c2=O)s1 [Ex 5],7.92
19,Cc1ncc(Cn2c(=O)c3cc(S(=O)(=O)NC4(C)CC4)sc3n(CC3CCCOC3)c2=O)s1 (stereo not shown) [Ex 17],6.33

# Test system: Kuramochi cells
# Test: Synthetic Lethality Assay of Cancer Cell
# Assay type: cell-based
# Conditions: Homo sapiens; growth inhibition of Kuramochi cells in the presence of methyl methanesulfonate (MMS), 96 hours, CellTiter-Glo
# Description: In order to evaluate the cancer cell growth inhibitory effect of the present compound, the inhibitory effect of the compound on the growth of a human ovarian cancer cell line, Kuramochi cells, was examined in the presence of methyl methanesulfonate (MMS) which is used as a DNA methylating agent.
# Test compound was dissolved in dimethyl sulfoxide and prepared a 10 mM compound solution. The compound solution was then further serially diluted with dimethyl sulfoxide to prepare a concentration of 400 times test compound solution from 6 mM to 1 μM.
# Kuramochi cells were purchased from the JCRB cell bank and cultured at 37° C. in the presence of 5% of CO2 using the complete medium described above. […]
# Cell viability after 96 hours was measured by using CellTiter-Glo (registered trademark) Luminescent Cell Viability Assay (manufactured by Promega Corporation) according to the recommended usage.
# The luminescence intensity was measured by using a luminescence detection plate reader (Envision, manufactured by PerkinElmer Inc.). The cell viability of each well was calculated as a relative value (%) of the luminescence intensity of each well to which each test compound with each concentration was added in a case where the luminescence intensity of a well to which dimethyl sulfoxide was added instead of the test compound was defined as 100%. […]
row,Compound,pIC50
1,"Cn1cc(Cn2c(=O)c3cc(S(=O)(=O)NC4(C)CC4)sc3n(Cc3ccc4c(c3)CC(=O)N4)c2=O)cn1 [Ex 130, 3-((1-Methyl-1H-pyrazol-4-yl)methyl)-N-(1-methylcyclopropyl)-2,4-dioxo-1-((2-oxoindolin-5-yl)methyl)-1,2,3,4-tetrahydrothieno[2,3-d]pyrimidine-6-sulfonamide]",4.93
